Test results reported in patent US6821941B2, “Tablet of compacted particulated cleaning composition” (ISP Investments Inc., priority 2002, dated 2004).

Legend:
[1] = grams of solid to form a saturated solution in 100 g of water at 20° C.; cited from earlier work
[2] = Disintegration rate of dishwashing detergent tablet vs. additive ingredient; format: physicochemical; conditions: additive in standard dishwashing detergent formulation; based on a tablet of 20 g; FIGURE
Excerpt: The FIGURE is a bar graph of Disintegration Rate (g/min) vs. Additive Ingredient present in a standard dishwashing detergent formulation.
The dishwashing disintegrant tablets of the invention herein have a disintegration rate of at least 40 g/min (based on a tablet of 20 g).

In the case of `NC(N)=O` [Urea], the “Water Solubility (g/100 g)” value [1] is given as >100 g/100 g and the Disintegration rate [2] is given as “minimal”.
